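Cultured in 96-well plates, cells were exposed to test compound for 48 hours across five concentrations. Abbreviation: GI50, concentration required for 50% inhibition of growth.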 Active and inactive are the calls of the source. Rule as the data show it: active = GI50 up to about 1.1 µM and inactive = higher.
Assays:
Assay in all cases: inhibition of tumour cell growth, NCI panel, 48 h
[1] = tested on: OVCAR-5
[2] = tested on: NCI-H460
[3] = tested on: LOX IMVI
[4] = tested on: KM12
[5] = tested on: A498
[6] = tested on: SF-268
[7] = tested on: HOP-62
[8] = tested on: COLO 205
[9] = tested on: NCI-H522
[10] = tested on: NCI-H226
[11] = tested on: SK-MEL-2
[12] = tested on: Hs-578T
[13] = tested on: IGROV-1
[14] = tested on: OVCAR-8
[15] = tested on: SNB-75
[16] = tested on: MCF7
[17] = tested on: OVCAR-3
[18] = tested on: M14
[19] = tested on: MOLT-4
[20] = tested on: T47D
[21] = tested on: SN12C
[22] = tested on: RPMI-8226
[23] = tested on: K562
[24] = tested on: ACHN
[25] = tested on: HCC 2998
[26] = tested on: A549
[27] = tested on: SK-MEL-28
[28] = tested on: HCT-15
[29] = tested on: HL-60
[30] = tested on: HT-29
[31] = tested on: MDA-MB-435
[32] = tested on: SF-539
[33] = tested on: SK-OV-3
[34] = tested on: U-251
[35] = tested on: SW-620
[36] = tested on: SR
[37] = tested on: UO-31
[38] = tested on: 786-0
[39] = tested on: RXF 393
[40] = tested on: HCT-116
[41] = tested on: EKVX
[42] = tested on: PC-3
[43] = tested on: SNB-19
[44] = tested on: UACC-62
[45] = tested on: BT-549
[46] = tested on: DU-145
[47] = tested on: TK-10
[48] = tested on: MDA-N
[49] = tested on: CCRF-CEM
[50] = tested on: SF-295
[51] = tested on: OVCAR-4
[52] = tested on: SK-MEL-5
[53] = tested on: NCI-H23
[54] = tested on: Malme-3M
[55] = tested on: MDA-MB-231
[56] = tested on: UACC-257
[57] = tested on: CAKI-1
[58] = tested on: NCI/ADR-RES

CN(C)CCNC(=O)Cn1ccc(=O)c2c([N+](=O)[O-])cccc21
GI50 [1]: > 100 µM (inactive) | GI50 [2]: > 100 µM (inactive) | GI50 [3]: > 100 µM (inactive) | GI50 [4]: > 100 µM (inactive) | GI50 [5]: > 100 µM (inactive) | GI50 [6]: > 100 µM (inactive) | GI50 [7]: > 100 µM (inactive) | GI50 [8]: > 100 µM (inactive) | GI50 [9]: > 100 µM (inactive) | GI50 [10]: > 100 µM (inactive) | GI50 [11]: > 100 µM (inactive) | GI50 [12]: > 100 µM (inactive) | GI50 [13]: > 100 µM (inactive) | GI50 [14]: > 100 µM (inactive) | GI50 [15]: > 100 µM (inactive) | GI50 [16]: > 100 µM (inactive) | GI50 [17]: > 100 µM (inactive) | GI50 [18]: > 100 µM (inactive) | GI50 [19]: > 100 µM (inactive) | GI50 [20]: > 100 µM (inactive) | GI50 [21]: > 100 µM (inactive) | GI50 [22]: > 100 µM (inactive) | GI50 [23]: > 100 µM (inactive) | GI50 [24]: > 100 µM (inactive) | GI50 [25]: > 100 µM (inactive) | GI50 [26]: > 100 µM (inactive) | GI50 [27]: > 100 µM (inactive) | GI50 [28]: > 100 µM | GI50 [29]: > 100 µM (inactive) | GI50 [30]: > 100 µM (inactive) | GI50 [31]: > 100 µM (inactive) | GI50 [32]: > 100 µM (inactive) | GI50 [33]: > 100 µM (inactive) | GI50 [34]: > 100 µM (inactive) | GI50 [35]: > 100 µM (inactive) | GI50 [36]: > 100 µM (inactive) | GI50 [37]: > 100 µM (inactive) | GI50 [38]: > 100 µM (inactive) | GI50 [39]: > 100 µM (inactive) | GI50 [40]: > 100 µM (inactive) | GI50 [41]: > 100 µM (inactive) | GI50 [42]: > 100 µM (inactive) | GI50 [43]: > 100 µM (inactive) | GI50 [44]: > 100 µM (inactive) | GI50 [45]: > 100 µM (inactive) | GI50 [46]: > 100 µM (inactive) | GI50 [47]: > 100 µM (inactive) | GI50 [48]: > 100 µM (inactive) | GI50 [49]: > 100 µM (inactive) | GI50 [50]: > 100 µM (inactive) | GI50 [51]: > 100 µM (inactive) | GI50 [52]: > 100 µM (inactive) | GI50 [53]: > 100 µM (inactive) | GI50 [54]: > 100 µM (inactive) | GI50 [55]: > 100 µM (inactive) | GI50 [56]: > 100 µM (inactive) | GI50 [57]: > 100 µM (inactive)

Cc1ccc(N(Cc2ccccc2)Cc2ccccc2)cc1
GI50 [1]: > 100 µM (inactive) | GI50 [2]: > 100 µM (inactive) | GI50 [3]: 34 µM (inactive) | GI50 [4]: 29.5 µM (inactive) | GI50 [5]: 61.4 µM (inactive) | GI50 [6]: 50.1 µM (inactive) | GI50 [7]: 26.7 µM (inactive) | GI50 [8]: 24.3 µM (inactive) | GI50 [9]: 22 µM (inactive) | GI50 [10]: > 100 µM (inactive) | GI50 [11]: 24.3 µM (inactive) | GI50 [12]: 40.5 µM (inactive) | GI50 [13]: 23.7 µM (inactive) | GI50 [14]: > 100 µM (inactive) | GI50 [15]: 68.7 µM (inactive) | GI50 [16]: 37.8 µM (inactive) | GI50 [17]: 32.8 µM (inactive) | GI50 [18]: 55.2 µM (inactive) | GI50 [19]: 23.8 µM (inactive) | GI50 [20]: 30.9 µM (inactive) | GI50 [21]: 72.3 µM (inactive) | GI50 [22]: 18.5 µM (inactive) | GI50 [23]: 55.8 µM (inactive) | GI50 [24]: > 100 µM (inactive) | GI50 [26]: 36.9 µM (inactive) | GI50 [27]: 54.2 µM (inactive) | GI50 [28]: 40.9 µM | GI50 [29]: 51.4 µM (inactive) | GI50 [30]: 29.9 µM (inactive) | GI50 [31]: 37.2 µM (inactive) | GI50 [32]: > 100 µM (inactive) | GI50 [58]: > 100 µM (inactive) | GI50 [33]: > 100 µM (inactive) | GI50 [34]: 65.9 µM (inactive) | GI50 [35]: 46.3 µM (inactive) | GI50 [37]: 48.4 µM (inactive) | GI50 [38]: 73.3 µM (inactive) | GI50 [39]: 59 µM (inactive) | GI50 [40]: 28.6 µM (inactive) | GI50 [41]: 35.8 µM (inactive) | GI50 [42]: 48.4 µM (inactive) | GI50 [43]: > 100 µM (inactive) | GI50 [44]: 82.4 µM (inactive) | GI50 [45]: > 100 µM (inactive) | GI50 [46]: > 100 µM (inactive) | GI50 [47]: > 100 µM (inactive) | GI50 [48]: 33.8 µM (inactive) | GI50 [49]: 28 µM (inactive) | GI50 [50]: 35.1 µM (inactive) | GI50 [51]: 32.7 µM (inactive) | GI50 [52]: 32.1 µM (inactive) | GI50 [53]: > 100 µM (inactive) | GI50 [54]: 17 µM (inactive) | GI50 [55]: > 100 µM (inactive) | GI50 [56]: 42.4 µM (inactive) | GI50 [57]: 47.9 µM (inactive)
